Non-standard residues stand in square brackets, D forms with d. Residues, ends and D or L forms follow the SMILES beside them. Bip = N[C@@H](Cc1ccc(-c2ccccc2)cc1)C(=O)O; Dip = N[C@H](C(=O)O)C(c1ccccc1)c1ccccc1; 2Nal = N[C@@H](Cc1ccc2ccccc2c1)C(=O)O
Tests used:
[1] = test system: PC 9 cells; experiment: Extracellular HMGB1 release, Western blot; assay type: cell-based
Description: The PC 9 cells were seeded at the density of 25,000 cells/well and left to adhere for 48 h. Cells were treated with Nal-P-113, Bip-P-113, and Dip-P-113 at 2× IC50 for 1, 2, and 4 h. After treatment of the peptides, the supernatant and lysate of the cells were collected separately for further experiments. The supernatant was collected after centrifugation at the speed of 1400× g. The cell lysate was washed twice using PBS before the sonication of the pellet using a bio-disruptor, and the disrupted pellet was centrifuged again for 10 min under 14,000 rpm at 4 °C. The concentration of the samples was quantified using the Bradford assay. Both supernatants and cell lysate were loaded and run on the sodium dodecyl sulfate polyacrylamide gel electrophoresis (SDS-PAGE) and were then electro transferred to a polyvinylidene difluoride (PVDF) membrane (Merck-Millipore, Burlington, MA, USA) in an electro-blot system, 30 V, 400 mA, for 75 min. The membrane was incubated in blocking buffer (5% skim milk, TBST buffer) for 1 h at room temperature and washed in TBST buffer three times. The anti-HMGB1 antibody (Abcam, Cambridge, UK, ab18256) was incubated overnight at 4 °C in the dilution ratio of 1:1000. The secondary antibody of a rabbit (diluted in 1:10,000) was incubated following rinsing with PBST three times for 2 h the next day at room temperature before being developed using a luminol reagent and imaged by a detected system (ImageQuant LAS 4000 mini).

[2] = test system: PC 9 cells; experiment: Propidium iodide/Hoechst 33342 staining (plasma membrane integrity); assay type: cell-based; conditions: PC 9, 2× IC50, 120 min, serum-free RPMI, fluorescence microscopy
Description: To examine the membranolytic activities of peptides, the PI/Hoechst 33342 staining was performed in this study. The PI dye was used to stain damaged/dead cells, and Hoechst 33342 was used to specifically stain the nuclei of living cells. PC 9 cells were seeded at 20,000 cells/well in a RPMI medium and allowed to adhere for 48 h. Then, the cells were replaced with serum-free RPMI medium and then treated with 2× IC50 peptides at 37 °C for 120 min. Then, the PI and Hoechst 33342 were added at a final concentration of 1 μg/mL for 20 min. PC 9 cells were observed using the inverted fluorescent microscope Zeiss equipped with a 40× oil objective lens (Carl Zeiss, Jena, Germany). The experiments were repeated three times independently.

[3] = test system: OECM-1 gingival epidermoid carcinoma cells; assay type: cell-based; conditions: 24 h
Description: (§1) The three non-small cell lung cancer cell lines, H1975, PC 9, A549, and oral squamous cell carcinoma cell line OECM-1 were cultured in RPMI 1640 medium supplemented with 10% fetal bovine serum, 2 mM L-glutamine and 1% penicillin/ streptomycin. The oral cancer cell line C9 was cultured in DMEM with 10% fetal bovine serum, 2 mM L-glutamine, and 1% penicillin/ streptomycin.
(§2) The MTT assay was applied for cell viability test according to previous protocol. […] Medium treated with PBS served as control group. […] After medium was removed, 100 µL DMSO was added to dissolve the formazan crystal. Absorbance was measured at 570 nm using a microplate reader (TECAN Sunrise ELISA Reader).

[4] = test system: PC 9 non-small cell lung cancer cells with EGFR mutation; assay type: cell-based; conditions: 24 h
Description: as §1, §2

[5] = test system: C9 oral squamous cell carcinoma cells; assay type: cell-based; conditions: 24 h
Description: as §1, §2

[6] = test system: A549 adenocarcinomic alveolar basal epithelial cells; assay type: cell-based; conditions: 24 h
Description: as §1, §2

[7] = test system: human fibroblasts (HFW); conditions: MTT, 100 μg/mL; cited from earlier work
Description: The toxicity of the peptides was determined previously by measuring cell death using MTT assays against human fibroblasts (HFW).

[8] = test system: PC 9 cell line; assay type: cell-based; conditions: for cell survival rate: 4 h; for cells killed: PC 9, 2× IC50, within 2 h, MTT
Description: A total of 5000 cells were incubated with Nal-P-113, Bip-P-113, and Dip-P-113 at 2× IC50 for 0.5, 1, 2, 3, and 4 h. After treatment, the MTT solution was further incubated for 3 h. Absorbance was measured at 570 nm on the microplate reader (TECAN Sunrise ELISA Reader) after the dissolution of the formazan crystal in 100 µL DMSO solution. The cell survival rate was calculated as aforementioned for cell viability assay.

[9] = test system: PC 9 cells; experiment: Cytochrome c release, ELISA of supernatant; assay type: cell-based; conditions: PC 9, 2× IC50, supernatant ELISA; for cytochrome c release, maximal value: highest over 0.5-4 h time course (Bip-P-113: at 4 h); for cytochrome c release, minimum value: lowest over 0.5-4 h time course (Bip-P-113: at 30 min)
Description: PC 9 cells were seeded with 10,000 cells/well in the 96-well plate and allowed to adhere for 48 h and then treated with Nal-P-113, Bip-P-113, and Dip-P-113 at 2× IC50 for 0.5, 1, 1.5, 2, and 4 h. Untreated cells were used as a control group. Supernatants were collected after centrifugation at 16,000× g for 10 min. Samples were analyzed using the Quantikine ELISA Rat/ Mouse Cytochrome c Immunoassay (R & D Systems, Minneapolis, MN, USA) according to the manufacturer’s protocol. The optical density at the wavelength of 450 nm of each well was determined using the microplate reader (TECAN Sunrise ELISA Reader).

[10] = test system: PC 9 cells; experiment: Extracellular ATP release, luciferin-luciferase assay; assay type: cell-based; conditions: for treatment time of highest ATP release (RLU): PC 9, 2× IC50, time points 0.5, 1, 1.5, 2 h, supernatant
Description: PC 9 cells were seeded at the density of 10,000 cells/ well in the 96-well plate and allowed to adhere for 48 h. Cells were treated with Nal-P-113, Bip-P-113, and Dip-P-113 at 2× IC50 for 0.5, 1, 1.5, and 2 h. Untreated cells were served as the control group. After being treated for different time points (0.5, 1, 1.5, and 2 h), the supernatant of cells was analyzed using the ENLITEN ATP luciferase assay kit (Promega, Madison, WI, USA). The level of extracellular ATP chemiluminescence was measured using the Wallac VICTOR 3 Multilabel plate reader (PerkinElmer, Shelton, CT, USA).

[11] = test system: PC 9 cells; experiment: JC-1 staining (mitochondrial membrane potential); assay type: cell-based; conditions: PC 9, 2× IC50, 120 min, serum-free RPMI, fluorescence microscopy
Description: PC 9 cells were seeded at 40,000 cells/well in a RPMI medium and allowed to adhere for 24 h. […] The JC-1 dye was added at a final concentration of 1 μg/mL for 45 min. PC 9 cells were observed using the inverted fluorescent microscope Zeiss equipped with a 20× oil objective lens (Carl Zeiss, Jena, Germany). The experiments were repeated three times independently.

[12] = test system: H1975 non-small cell lung carcinoma cells; assay type: cell-based; conditions: 24 h
Description: as §1, §2

SMILES	HMGB1 protein in supernatant ([1]; PC 9, 2× IC50, 1 h treatment)	HMGB1 protein in supernatant ([1]; PC 9, 2× IC50, after 2 and 4 h)	plasma membrane integrity (PI entry) [2]	IC50 [3] [µM]	IC50 [4] [µM]	IC50 [5] [µM]	IC50 [6] [µM]	cell death [7]	cell survival rate [8]	cytochrome c release, maximal value [9]	cytochrome c release, minimum value [9]	treatment time of highest ATP release (RLU) [10] [h]	mitochondrial membrane potential (JC-1) [11]	IC50 [12] [µM]	cells killed [8]	ATP release compared among the peptides ([10]; PC 9, 2× IC50, at the 0.5 h peak)
CC(=O)N[C@@H](C)C(=O)N[C@@H](CCCCN)C(=O)N[C@@H](CCCNC(=N)N)C(=O)N[C@H](C(=O)N[C@H](C(=O)NCC(=O)N[C@@H](Cc1ccc(O)cc1)C(=O)N[C@@H](CCCCN)C(=O)N[C@@H](CCCNC(=N)N)C(=O)N[C@@H](CCCCN)C(=O)N[C@@H](Cc1ccccc1)C(=O)N[C@H](C(N)=O)C(c1ccccc1)c1ccccc1)C(c1ccccc1)c1ccccc1)C(c1ccccc1)c1ccccc1 [Dip-P-113] (Ac-AKR[Dip][Dip]GYKRKF[Dip]-NH2)	No HMGB1 protein was observed	can clearly be seen	cause damage to the plasma membrane integrity	62.9	71.5	67.9	96.4	less than 10%	around 60%	around 3.5 ng/mL	lower than 2 ng/mL	0.5	induced changes of the mitochondrial membrane potential			
CC(=O)N[C@@H](C)C(=O)N[C@@H](CCCCN)C(=O)N[C@@H](CCCNC(=N)N)C(=O)N[C@@H](Cc1ccccc1)C(=O)N[C@@H](Cc1ccccc1)C(=O)NCC(=O)N[C@@H](Cc1ccc(O)cc1)C(=O)N[C@@H](CCCCN)C(=O)N[C@@H](CCCNC(=N)N)C(=O)N[C@@H](CCCCN)C(=O)N[C@@H](Cc1ccccc1)C(=O)N[C@@H](Cc1ccccc1)C(N)=O [Phe-P-113] (Ac-AKRFFGYKRKFF-NH2)				120	173	80.5	99.1									
CC(=O)N[C@@H](C)C(=O)N[C@@H](CCCCN)C(=O)N[C@@H](CCCNC(=N)N)C(=O)N[C@@H](Cc1ccc(-c2ccccc2)cc1)C(=O)N[C@@H](Cc1ccc(-c2ccccc2)cc1)C(=O)NCC(=O)N[C@@H](Cc1ccc(O)cc1)C(=O)N[C@@H](CCCCN)C(=O)N[C@@H](CCCNC(=N)N)C(=O)N[C@@H](CCCCN)C(=O)N[C@@H](Cc1ccccc1)C(=O)N[C@@H](Cc1ccc(-c2ccccc2)cc1)C(N)=O [Bip-P-113] (Ac-AKR[Bip][Bip]GYKRKF[Bip]-NH2)	No HMGB1 protein was observed	can hardly be detected	cause damage to the plasma membrane integrity	42.5	64.2	42	48.4	less than 10%	below 50%	~15 ng/mL	3 ng/mL	0.5	induced changes of the mitochondrial membrane potential	63.6	more than 80%	lowest ATP release
CC(=O)N[C@@H](C)C(=O)N[C@@H](CCCCN)C(=O)N[C@@H](CCCNC(=N)N)C(=O)N[C@@H](Cc1ccc2ccccc2c1)C(=O)N[C@@H](Cc1ccc2ccccc2c1)C(=O)NCC(=O)N[C@@H](Cc1ccc(O)cc1)C(=O)N[C@@H](CCCCN)C(=O)N[C@@H](CCCNC(=N)N)C(=O)N[C@@H](CCCCN)C(=O)N[C@@H](Cc1ccccc1)C(=O)N[C@@H](Cc1ccc2ccccc2c1)C(N)=O [Nal-P-113] (Ac-AKR[2Nal][2Nal]GYKRKF[2Nal]-NH2)	No HMGB1 protein was observed	can clearly be seen	cause damage to the plasma membrane integrity	25.9	28.1	21.4	38.2	less than 10%	below 50%	around 3.5 ng/mL	lower than 2 ng/mL	0.5	induced changes of the mitochondrial membrane potential	58.3	more than 80%	
CC(=O)N[C@@H](C)C(=O)N[C@@H](CCCCN)C(=O)N[C@@H](CCCNC(=N)N)C(=O)N[C@@H](Cc1c[nH]cn1)C(=O)N[C@@H](Cc1c[nH]cn1)C(=O)NCC(=O)N[C@@H](Cc1ccc(O)cc1)C(=O)N[C@@H](CCCCN)C(=O)N[C@@H](CCCNC(=N)N)C(=O)N[C@@H](CCCCN)C(=O)N[C@@H](Cc1ccccc1)C(=O)N[C@@H](Cc1c[nH]cn1)C(N)=O [P-113, reference compound] (Ac-AKRHHGYKRKFH-NH2; N-terminus and C-terminus assumed)					> 200											
